Counter-ions that a name gives are not always drawn.
Tests used:
recombinant human CHIT1 = recombinant human CHIT1 (Homo sapiens (Human), UniProt Q13231); experiment: Human CHIT1 activity assay; format: biochemical; conditions: recombinant human CHIT1, citrate buffer pH 5.2, 37° C., 60 minutes; read-out: hCHIT1, IC50
Protocol: (§1) The assay was run in the 96-well plate format, each reaction in the total volume of 100 μL. 4-methylumbelliferyl β-D-N,N′,N″-triacetylchitotriose was used as a substrate for the enzyme. Upon hydrolysis by CHIT1, the substrate releases 4-methylumbelliferyl (4MU) that, when ionized in basic pH, emits fluorescence at 460 nm. Briefly, 40 μL of a substrate was added to each well, followed by 10 μL of compound dilution and 50 μL of CHIT1 recombinant enzyme solution. The reaction was carried out in citrate buffer, pH 5.2, in the dark, at 37° C. for 60 minutes with shaking. […] The IC50 values were calculated using GraphPad Prism.

recombinant human AMCase = recombinant human AMCase (Homo sapiens (Human), UniProt Q9BZP6); experiment: Human AMCase activity assay; format: biochemical; conditions: citrate buffer pH 5.2, 37° C., 60 minutes, read-out: hAMCase, IC50
Protocol: as §1, with “4-Methylumbelliferyl B-D-N,N′-diacetylchitobioside hydrate” for “4-methylumbelliferyl β-D-N,N′,N″-triacetylchitotriose”, “AMCase,” for “CHIT1,”, “hAMCase” for “CHIT1”

hERG channel = hERG channel (Homo sapiens (Human), UniProt Q12809); experiment: Human ERG channel binding assay (fluorescence polarization); conditions: Table 1; tracer displacement, 4 h at room temperature
Protocol: Human ERG Channel Binding Assay
Fluorescence polarization assay based on the principle of fluorescence polarization where a red-shifted fluorescent tracer is displaced from the hERG channel by compounds that bind to the channel was used to establish the binding of the compounds to hERG channel. […] Briefly, the compounds in serial dilutions were incubated with a membrane fraction containing hERG channel protein and a high-affinity red fluorescent hERG channel ligand in black 384-well plate. […] The IC50 values were calculated using GraphPad Prism.

hERG channel, sequence (Q12809 whole entry): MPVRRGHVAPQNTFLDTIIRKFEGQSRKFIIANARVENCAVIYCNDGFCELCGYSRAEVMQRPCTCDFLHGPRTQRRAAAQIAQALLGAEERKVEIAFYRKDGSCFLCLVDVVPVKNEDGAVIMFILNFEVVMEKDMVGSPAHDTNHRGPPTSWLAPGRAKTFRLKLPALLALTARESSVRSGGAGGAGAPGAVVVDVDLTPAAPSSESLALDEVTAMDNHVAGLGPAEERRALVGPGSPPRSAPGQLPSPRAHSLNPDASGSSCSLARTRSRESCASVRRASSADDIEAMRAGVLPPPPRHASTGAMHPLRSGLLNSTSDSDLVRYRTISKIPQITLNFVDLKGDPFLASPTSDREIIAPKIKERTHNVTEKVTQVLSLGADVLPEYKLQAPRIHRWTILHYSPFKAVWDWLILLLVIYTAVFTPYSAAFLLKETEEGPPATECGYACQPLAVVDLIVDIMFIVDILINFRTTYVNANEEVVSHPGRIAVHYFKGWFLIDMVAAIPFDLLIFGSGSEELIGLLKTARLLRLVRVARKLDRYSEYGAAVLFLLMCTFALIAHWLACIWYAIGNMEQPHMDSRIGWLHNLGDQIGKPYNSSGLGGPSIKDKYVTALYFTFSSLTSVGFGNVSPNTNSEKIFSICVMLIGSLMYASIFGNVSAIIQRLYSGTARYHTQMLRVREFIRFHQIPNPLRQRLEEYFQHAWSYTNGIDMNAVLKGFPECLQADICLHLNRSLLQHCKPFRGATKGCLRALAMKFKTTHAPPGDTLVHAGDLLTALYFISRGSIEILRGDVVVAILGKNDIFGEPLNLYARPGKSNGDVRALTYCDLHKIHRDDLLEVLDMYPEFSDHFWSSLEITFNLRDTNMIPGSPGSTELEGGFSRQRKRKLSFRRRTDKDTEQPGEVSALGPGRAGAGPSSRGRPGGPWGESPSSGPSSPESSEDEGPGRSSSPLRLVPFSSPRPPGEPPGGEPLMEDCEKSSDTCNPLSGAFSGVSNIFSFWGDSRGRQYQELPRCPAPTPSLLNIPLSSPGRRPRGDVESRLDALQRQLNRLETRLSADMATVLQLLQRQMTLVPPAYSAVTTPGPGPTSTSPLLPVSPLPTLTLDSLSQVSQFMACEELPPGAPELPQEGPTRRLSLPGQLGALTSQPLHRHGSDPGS
recombinant human AMCase, sequence (Q9BZP6 22-476): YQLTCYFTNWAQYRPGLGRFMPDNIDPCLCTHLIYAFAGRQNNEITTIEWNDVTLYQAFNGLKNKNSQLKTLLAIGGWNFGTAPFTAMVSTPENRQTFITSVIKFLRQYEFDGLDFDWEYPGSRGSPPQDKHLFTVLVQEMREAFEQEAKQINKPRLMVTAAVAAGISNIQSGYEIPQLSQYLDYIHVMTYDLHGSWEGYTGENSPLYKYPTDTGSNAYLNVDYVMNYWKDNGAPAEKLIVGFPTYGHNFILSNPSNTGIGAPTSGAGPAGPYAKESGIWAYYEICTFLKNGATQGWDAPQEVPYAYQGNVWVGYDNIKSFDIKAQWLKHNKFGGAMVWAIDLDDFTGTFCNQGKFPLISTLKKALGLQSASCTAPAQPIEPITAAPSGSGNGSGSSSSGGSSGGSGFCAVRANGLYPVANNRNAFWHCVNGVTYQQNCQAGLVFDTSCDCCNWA
recombinant human CHIT1, sequence (Q13231 22-466): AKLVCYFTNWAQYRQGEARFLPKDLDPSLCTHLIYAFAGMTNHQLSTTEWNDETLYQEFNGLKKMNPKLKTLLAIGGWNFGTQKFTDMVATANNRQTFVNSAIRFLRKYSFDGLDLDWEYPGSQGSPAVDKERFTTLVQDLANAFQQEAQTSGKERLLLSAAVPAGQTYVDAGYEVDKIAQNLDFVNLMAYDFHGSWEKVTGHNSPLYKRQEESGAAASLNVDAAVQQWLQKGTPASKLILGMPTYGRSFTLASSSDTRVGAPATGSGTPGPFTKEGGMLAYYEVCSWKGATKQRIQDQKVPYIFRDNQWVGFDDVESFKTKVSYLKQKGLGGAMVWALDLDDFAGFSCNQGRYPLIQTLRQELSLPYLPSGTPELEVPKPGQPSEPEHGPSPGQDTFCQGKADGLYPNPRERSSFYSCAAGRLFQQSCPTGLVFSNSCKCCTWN

SMILES	IC50 (recombinant human CHIT1) [nM]	IC50 (recombinant human AMCase) [nM]	IC50 (hERG channel) [µM]
Nc1nnc(N2CCC(N3C[C@H](CN4CCOCC4)OC[C@@H]3Cc3ccc(Cl)cc3)CC2)[nH]1 [Example 15, 5-(4-((2S,5S)-5-(4-chlorobenzyl)-2-(morpholinomethyl)morpholino)piperidin-1-yl)-4H-1,2,4-triazol-3-amine 2,2,2-trifluoroacetate]	< 100	< 100	> 100
Nc1nnc(N2CCC(N3C[C@H]([C@H](O)C(F)(F)F)OC[C@@H]3Cc3ccc(Cl)cc3)CC2)[nH]1 [Example 16, (S)-1-((2R,5S)-4-(1-(5-amino-4H-1,2,4-triazol-3-yl)piperidin-4-yl)-5-(4-chloro-benzyl)morpholin-2-yl)-2,2,2-trifluoroethanol 2,2,2-trifluoroacetate]	< 100	< 100	> 100
Nc1nnc(N2CCC(N3C[C@H]([C@@H](O)C(F)(F)F)OC[C@@H]3Cc3ccc(Cl)cc3)CC2)[nH]1 [Example 17, (R)-1-((2R,5S)-4-(1-(5-amino-4H-1,2,4-triazol-3-yl)piperidin-4-yl)-5-(4-chlorobenzyl)morpholin-2-yl)-2,2,2-trifluoroethanol 2,2,2-trifluoroacetate]	< 100	< 100	25 to 100
Cc1cc([C@H]2CN(C3CCN(c4nnc(N)[nH]4)CC3)[C@@H](Cc3ccc(Cl)cc3)CO2)on1 [Example 22, 5-(4-((2R,5S)-5-(4-chlorobenzyl)-2-(3-methylisoxazol-5-yl)morpholino)piperidin-1-yl)-4H-1,2,4-triazol-3-amine 2,2,2-trifluoroacetate]	< 100	< 100	> 100
CC1(C)CC1NC(=O)[C@H]1CN(C2CCN(c3nnc(N)[nH]3)CC2)[C@@H](Cc2ccc(Cl)cc2)CO1 (stereo partly drawn) [Example 23, (2R,5S)-4-(1-(5-amino-4H-1,2,4-triazol-3-yl)piperidin-4-yl)-5-(4-chlorobenzyl)-N-(2,2-dimethylcyclopropyl)morpholine-2-carboxamide 2,2,2-trifluoroacetate]	< 100	< 100	> 100
Nc1nnc(N2CCC(N3C[C@H](C(=O)NC4CC4)OC[C@@H]3Cc3ccc(Cl)cc3)CC2)[nH]1 [Example 24, (2R,5S)-4-(1-(5-amino-4H-1,2,4-triazol-3-yl)piperidin-4-yl)-5-(4-chlorobenzyl)-N-cyclopropylmorpholine-2-carboxamide 2,2,2-trifluoroacetate]	< 100	< 100	> 100
Nc1nnc(N2CCC(N3C[C@H](C(=O)NCC(F)F)OC[C@@H]3Cc3ccc(Cl)cc3)CC2)[nH]1 [Example 25, (2R,5S)-4-(1-(5-amino-4H-1,2,4-triazol-3-yl)piperidin-4-yl)-5-(4-chlorobenzyl)-N-(2,2-difluoroethyl)morpholine-2-carboxamide 2,2,2-trifluoroacetate]	< 100	< 100	> 100
Nc1nnc(N2CCC(N3C[C@H](C(=O)NCC(F)(F)F)OC[C@@H]3Cc3ccc(Cl)cc3)CC2)[nH]1 [Example 26, (2R,5S)-4-(1-(5-amino-4H-1,2,4-triazol-3-yl)piperidin-4-yl)-5-(4-chlorobenzyl)-N-(2,2,2-trifluoroethyl)morpholine-2-carboxamide 2,2,2-trifluoroacetate]	100 to 1000	< 100	> 100
Nc1nnc(N2CCC(N3C[C@H](CN4CC[C@H](O)C4)OC[C@@H]3Cc3ccc(Cl)cc3)CC2)[nH]1 [Example 30, (S)-1-(((2S,5S)-4-(1-(5-amino-4H-1,2,4-triazol-3-yl)piperidin-4-yl)-5-(4-chlorobenzyl)morpholin-2-yl)methyl)pyrrolidin-3-ol 2,2,2-trifluoroacetate]	100 to 1000	< 100	> 100
Nc1nnc(N2CCC(N3C[C@H](CN4CC[C@@H](O)C4)OC[C@@H]3Cc3ccc(Cl)cc3)CC2)[nH]1 [Example 31, (R)-1-(((2S,5S)-4-(1-(5-amino-4H-1,2,4-triazol-3-yl)piperidin-4-yl)-5-(4-chlorobenzyl)morpholin-2-yl)methyl)pyrrolidin-3-ol 2,2,2-trifluoroacetate]	100 to 1000	< 100	> 100
Cc1cc([C@H]2CN(C3CCN(c4nnc(N)[nH]4)CC3)[C@@H](Cc3ccc(Cl)cc3)CO2)[nH]n1 [Example 34, 5-(4-((2R,5S)-5-(4-chlorobenzyl)-2-(3-methyl-1H-pyrazol-5-yl)morpholino)-piperidin-1-yl)-4H-1,2,4-triazol-3-amine 2,2,2-trifluoroacetate]	< 100	< 100	25 to 100

The next lines start with results.

IC50 (recombinant human CHIT1) [nM]	IC50 (recombinant human AMCase) [nM]	SMILES	IC50 (hERG channel) [µM]
< 100	< 100	Nc1nnc(N2CCC(N3C[C@H](Cn4cccn4)OC[C@@H]3Cc3ccc(Cl)cc3)CC2)[nH]1 [Example 13, 5-(4-((2R,5S)-2-((1H-pyrazol-1-yl)methyl)-5-(4-chlorobenzyl)morpholino)-piperidin-1-yl)-4H-1,2,4-triazol-3-amine 2,2,2-trifluoroacetate]	> 100
< 100	< 100	Nc1nnc(N2CCC(N3C[C@H](CC(F)(F)F)OC[C@@H]3Cc3ccc(Cl)cc3)CC2)[nH]1 [Example 14, 5-(4-((2S,5S)-5-(4-chlorobenzyl)-2-(2,2,2-trifluoroethyl)morpholino)piperidin-1-yl)-4H-1,2,4-triazol-3-amine 2,2,2-trifluoroacetate]	> 100
< 100	< 100	Nc1nnc(N2CCC(N3C[C@H](Cn4ccnn4)OC[C@@H]3Cc3ccc(Cl)cc3)CC2)[nH]1 [Example 21, 5-(4-((2R,5S)-2-((1H-1,2,3-triazol-1-yl)methyl)-5-(4-chlorobenzyl)morpholino)-piperidin-1-yl)-4H-1,2,4-triazol-3-amine 2,2,2-trifluoroacetate]	25 to 100
< 100	< 100	Nc1nnc(N2CCC(N3C[C@H](Cn4cncn4)OC[C@@H]3Cc3ccc(Cl)cc3)CC2)[nH]1 [Example 27, 5-(4-((2R,5S)-2-((1H-1,2,4-triazol-1-yl)methyl)-5-(4-chlorobenzyl)morpholino)piperidin-1-yl)-4H-1,2,4-triazol-3-amine 2,2,2-trifluoroacetate]	> 100
< 100	< 100	Nc1nnc(N2CCC(N3C[C@H](CN4CCCC4)OC[C@@H]3Cc3ccc(Cl)cc3)CC2)[nH]1 [Example 28, 5-(4-((2S,5S)-5-(4-chlorobenzyl)-2-(pyrrolidin-1-ylmethyl)morpholino)piperidin-1-yl)-4H-1,2,4-triazol-3-amine 2,2,2-trifluoroacetate]	> 100
< 100	< 100	Nc1nnc(N2CCC(N3C[C@H](CN4CCC(F)(F)C4)OC[C@@H]3Cc3ccc(Cl)cc3)CC2)[nH]1 [Example 29, 5-(4-((2S,5S)-5-(4-chlorobenzyl)-2-((3,3-difluoropyrrolidin-1-yl)methyl)-morpholino)piperidin-1-yl)-4H-1,2,4-triazol-3-amine 2,2,2-trifluoroacetate]	> 100
< 100	< 100	C[S+]([O-])C[C@H]1CN(C2CCN(c3nnc(N)[nH]3)CC2)[C@@H](Cc2ccc(Cl)cc2)CO1 (stereo partly drawn) [Example 32, 5-(4-((2R,5S)-5-(4-chlorobenzyl)-2-((methylsulfinyl)methyl)morpholino)piperidin-1-yl)-4H-1,2,4-triazol-3-amine dihydrochloride]	> 100
< 100	< 100	CS(=O)(=O)C[C@H]1CN(C2CCN(c3nnc(N)[nH]3)CC2)[C@@H](Cc2ccc(Cl)cc2)CO1 [Example 33, 5-(4-((2R,5S)-5-(4-chlorobenzyl)-2-((methylsulfonyl)methyl)morpholino)piperidin-1-yl)-4H-1,2,4-triazol-3-amine dihydrochloride]	> 100
< 100	< 100	Nc1nnc(N2CCC(N3C[C@H](Cn4cc(F)cn4)OC[C@@H]3Cc3ccc(Cl)cc3)CC2)[nH]1 [Example 36, 5-(4-((2R,5S)-5-(4-chlorobenzyl)-2-((4-fluoro-1H-pyrazol-1-yl)methyl)-morpholino)piperidin-1-yl)-4H-1,2,4-triazol-3-amine 2,2,2-trifluoroacetate]	10 to 25
< 100	< 100	Nc1nnc(N2CCC(N3C[C@H](CN4CC(F)C4)OC[C@@H]3Cc3ccc(Cl)cc3)CC2)[nH]1 [Example 37, 5-(4-((2S,5S)-5-(4-chlorobenzyl)-2-((3-fluoroazetidin-1-yl)methyl)morpholino)-piperidin-1-yl)-4H-1,2,4-triazol-3-amine 2,2,2-trifluoroacetate]	25 to 100
